Source: patent US5256664A, “Antidepressant 3-halophenylpiperazinylpropyl derivatives of substituted triazolones and triazoldiones” (priority 1992, dated 1993)

How the values were obtained:
serotonin receptors = assay: in vitro binding, serotonin receptors; conditions: in vitro binding testing
Text: (§1) The Formula I compounds are useful pharmacologic agents with psychotropic properties. […] Specifically, nefazodone triazoldione (XIb, "nef-triazoldione") was comparatively tested with nefazodone and the 5-hydroxyethyl metabolite ("OH-nefazodone"). […] The latter observation is significant in that agents with low affinity for alpha-receptors relative to serotonin type 2 receptors are less likely to elicit certain undesirable side effects, such as sedation and lowering of blood pressure.

[1] = metabolite conversion experiment with in vitro human liver microsomal preparation; assay type: in vitro ADME; conditions: compound as substrate
[2] = HPLC of plasma from dogs given nefazodone; assay type: in vivo, dog; conditions: identified by HPLC retention time only
Text: The similarity of HPLC retention times for both keto-nefazodone and the parent drug nefazodone in many HPLC systems, as well as the small amount of the compound complicate the detection of this putative metabolite.

[3] = test system: serotonin type 2 receptors; assay: in vitro binding, serotonin type 2 receptors; conditions: compared with nefazodone and OH-nefazodone
Text: as §1

dopamine receptor = dopamine receptor binding; conditions: in vitro binding
Text: as §1

cholinergic receptor = cholinergic receptor binding; conditions: in vitro binding
Text: as §1

alpha-receptor = alpha-receptor binding; conditions: in vitro binding
Text: as §1

[4] = test system: serotonin type 2 receptor sites; assay: 5-HT2-mediated DOI-induced headshake response in rat; assay type: in vivo; conditions: acute effect
Description: The efficacy of nef-triazoldione at serotonin type 2 receptor sites in vivo was determined by examining its acute effect in a rat model based on the 5-HT2 -mediated DOI (chemically, 1-(2,5-dimethoxy-4-iodophenyl)-2-aminopropane)-induced headshake response. Cf: Bedard and Pycock, Neuropharmacology 16: 663-670 (1977). […] Thus the in vivo results which correlate with selective in vitro binding are indicative of useful antidepressant effects following systemic administration of these compounds.

[5] = circulating metabolite after nefazodone administration to humans and animals; assay type: in vivo, humans and animals (rat and dog)
Text: The present invention concerns compounds of Formula I and their acid addition salts and/or hydrates. [drawing 3] In the foregoing structural formula the symbol R denotes halogen, preferably chloro, and trifluoromethyl; Z is hydrogen and [drawing 4] with R^1 being hydrogen, halogen, C1-4 alkoxy and trifluoromethyl; and n is an integer from 2-4. The symbol X is either an oxygen atom, providing a carbonyl moiety; or is an acetyl group. The single and dotted lines represent either a covalent single bond or a double bond. The compounds of Formula I exist then in two structural subclasses, Ia and Ib. [drawing 5] Compounds of formula I arose from investigations of the metabolism of the antidepressant drug nefazodone. […] Subsequently, this new major metabolite was isolated and identified as having the following structure: [drawing 6]
It should be appreciated that compound Ib could also be obtained by enzymatic (human liver microsomes) conversion of compound Ia in vitro. Administration of nefazodone or structural analogs to mammals will result in significant plasma levels of the related Ib compounds. By "significant plasma levels" is meant that these levels are from one to several-fold higher than those of the parent drug.

[6] = compared with nefazodone and OH-nefazodone

CCc1nn(CCCN2CCN(c3cccc(Cl)c3)CC2)c(=O)n1CCOc1ccccc1 [nefazodone, Nefazodone]
affinity for serotonin receptors (serotonin receptors): displays affinity for serotonin receptors

CC(O)c1nn(CCCN2CCN(c3cccc(Cl)c3)CC2)c(=O)n1CCOc1ccccc1 (centres unmarked) [OH-nefazodone]
affinity for serotonin receptors (serotonin receptors): displays affinity for serotonin receptors

CC(=O)c1nn(CCCN2CCN(c3cccc(Cl)c3)CC2)c(=O)n1CCOc1ccccc1.Cl [keto-nefazodone, 2-(3-[4-(3-Chlorophenyl)-1-piperazinyl]propyl)-5-acetyl-2,4-dihydro-4-(2-phenoxyethyl)-3H-1,2,4-triazol-3-one hydrochloride]
metabolite produced from substrate [1]: nefazodone triazoldione (XIb) was produced and isolated | amount in plasma by HPLC [2]: small amounts

Cl.O=c1[nH]n(CCCN2CCN(c3cccc(Cl)c3)CC2)c(=O)n1CCOc1ccccc1 [nef-triazoldione, 2-(3-[4-(3-Chlorophenyl)-1-piperazinyl]propyl)-4-(2-phenoxyethyl)-4H-1,2,4-triazole-3,5(1H,2H)-dione hydrochloride]
affinity for serotonin receptors (serotonin receptors): displays affinity for serotonin receptors | binding at serotonin type 2 receptors [3]: not as robust as for both nefazodone and OH-nefazodone | dopamine receptor binding (dopamine receptor): relatively inactive | cholinergic receptor binding (cholinergic receptor): relatively inactive | alpha-receptor binding (alpha-receptor): relatively inactive | affinity at alpha-receptor binding sites relative to reference compounds (alpha-receptor; [6]): lower affinity at alpha-receptor binding sites than the two reference compounds | inhibition of the DOI-induced headshake response [4]: modest inhibition | potency in DOI-induced headshake test relative to reference compounds [4, 6]: less potent than either nefazodone or OH-nefazodone | metabolite in urine or bile samples ([5]; following nefazodone administration): No indication of this circulating metabolite had been seen in urine or bile samples | blood levels of metabolite ([5]; following nefazodone administration to humans and animals (rat and dog)): Blood levels of a new and uncharacterized major metabolite of nefazodone were observed
